Experimental data: ChEMBL document CHEMBL4184250, “Structure-activity studies of a macrocyclic peptide inhibitor of histone lysine demethylase 4A” (Bioorg Med Chem, 2018); call rule not given here
pEC50, pIC50, pKd: −log10 of the molar value. Where a SMILES comes first, the peptide text is derived from it. Bridges are numbered along the chain shown (N, C = ends). [ ]: non-standard residue; d: D form. NMeI = CC[C@H](C)[C@H](NC)C(=O)O; NMeC = CN[C@@H](CS)C(=O)O

Columns and labels:
[1] = Drug uptake in human MCF7 cells assessed as cell area stained at 10 uM after 3 hrs by Hoechst 33342 staining based confocal microscopic analysis; type: ADME; settings: mcf7, 3 h
[2] = target: T1, Lysine-specific demethylase 4C (Homo sapiens, UniProt Q9H3R0); assay: Inhibition of KDM4C (unknown origin) expressed in Escherichia coli using biotinylated peptide as substrate pretreated for 15 mins followed by substrate addition by Alphascreen assay
T1 sequence (Q9H3R0 whole entry): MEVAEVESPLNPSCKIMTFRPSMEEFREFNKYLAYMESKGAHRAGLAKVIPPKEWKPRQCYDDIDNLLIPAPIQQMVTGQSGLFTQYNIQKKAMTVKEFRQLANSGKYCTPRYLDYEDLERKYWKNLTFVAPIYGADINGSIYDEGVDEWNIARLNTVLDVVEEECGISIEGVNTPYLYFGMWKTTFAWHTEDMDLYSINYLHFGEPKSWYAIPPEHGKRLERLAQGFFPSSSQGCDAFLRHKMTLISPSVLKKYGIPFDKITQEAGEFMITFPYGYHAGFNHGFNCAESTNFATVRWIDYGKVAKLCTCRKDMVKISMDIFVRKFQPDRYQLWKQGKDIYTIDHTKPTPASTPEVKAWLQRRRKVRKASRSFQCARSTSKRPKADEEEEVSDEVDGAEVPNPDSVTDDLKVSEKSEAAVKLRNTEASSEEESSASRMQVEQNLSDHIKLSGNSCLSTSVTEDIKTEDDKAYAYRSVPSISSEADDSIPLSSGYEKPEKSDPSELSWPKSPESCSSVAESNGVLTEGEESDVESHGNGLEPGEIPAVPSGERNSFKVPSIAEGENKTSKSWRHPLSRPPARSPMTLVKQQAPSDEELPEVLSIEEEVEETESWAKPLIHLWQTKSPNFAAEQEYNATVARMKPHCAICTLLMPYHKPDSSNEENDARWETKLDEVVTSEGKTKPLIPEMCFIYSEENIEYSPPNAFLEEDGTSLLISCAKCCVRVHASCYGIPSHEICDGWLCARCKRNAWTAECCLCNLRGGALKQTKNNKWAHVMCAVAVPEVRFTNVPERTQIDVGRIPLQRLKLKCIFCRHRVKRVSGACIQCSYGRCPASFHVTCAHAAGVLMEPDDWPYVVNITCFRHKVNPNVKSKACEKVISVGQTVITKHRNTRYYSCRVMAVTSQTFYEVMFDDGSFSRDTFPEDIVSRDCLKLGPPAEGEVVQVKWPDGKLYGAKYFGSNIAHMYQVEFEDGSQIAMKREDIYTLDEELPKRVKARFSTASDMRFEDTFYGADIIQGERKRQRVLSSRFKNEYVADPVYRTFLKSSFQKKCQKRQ

[3] = target: T2, Lysine-specific demethylase 4A (Homo sapiens, UniProt O75164); assay: Inhibition of KDM4A (unknown origin) expressed in Escherichia coli using biotinylated peptide as substrate pretreated for 15 mins followed by substrate addition by Alphascreen assay
T2 sequence (O75164 whole entry): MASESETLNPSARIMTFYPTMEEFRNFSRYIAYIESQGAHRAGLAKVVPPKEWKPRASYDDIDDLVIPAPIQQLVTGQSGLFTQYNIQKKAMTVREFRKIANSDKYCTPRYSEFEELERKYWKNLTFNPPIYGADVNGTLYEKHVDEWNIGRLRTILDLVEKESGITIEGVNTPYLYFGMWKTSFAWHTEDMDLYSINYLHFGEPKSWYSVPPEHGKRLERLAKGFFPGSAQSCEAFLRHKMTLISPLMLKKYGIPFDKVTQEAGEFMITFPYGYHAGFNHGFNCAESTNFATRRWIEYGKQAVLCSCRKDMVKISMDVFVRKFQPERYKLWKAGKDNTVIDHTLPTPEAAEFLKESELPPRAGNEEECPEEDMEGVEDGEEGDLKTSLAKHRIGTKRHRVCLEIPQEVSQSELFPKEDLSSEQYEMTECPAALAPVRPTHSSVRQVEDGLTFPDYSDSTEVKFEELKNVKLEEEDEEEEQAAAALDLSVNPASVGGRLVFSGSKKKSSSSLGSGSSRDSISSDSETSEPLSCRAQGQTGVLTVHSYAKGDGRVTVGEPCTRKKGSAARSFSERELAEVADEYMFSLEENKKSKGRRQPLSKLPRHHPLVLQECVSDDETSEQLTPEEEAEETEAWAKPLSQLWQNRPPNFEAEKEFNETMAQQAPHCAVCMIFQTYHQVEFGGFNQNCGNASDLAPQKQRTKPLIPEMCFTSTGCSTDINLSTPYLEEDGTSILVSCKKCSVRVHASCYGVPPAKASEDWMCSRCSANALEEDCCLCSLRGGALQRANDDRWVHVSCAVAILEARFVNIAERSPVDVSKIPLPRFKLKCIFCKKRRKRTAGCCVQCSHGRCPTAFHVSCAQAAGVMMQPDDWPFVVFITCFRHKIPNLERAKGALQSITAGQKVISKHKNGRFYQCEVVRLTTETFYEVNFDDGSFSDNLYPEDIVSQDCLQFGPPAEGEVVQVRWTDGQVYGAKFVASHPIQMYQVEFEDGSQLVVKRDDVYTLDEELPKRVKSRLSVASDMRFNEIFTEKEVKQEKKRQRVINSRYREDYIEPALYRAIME

[4] = target: T2, Lysine-specific demethylase 4A; assay: Binding affinity to biotinylated-KDM4A (unknown origin) at 300 nM by bio-layer interferometric method; settings: read-out: Kd(app)
[5] = target: T2, Lysine-specific demethylase 4A; assay: Inhibition of full length FLAG-tagged KDM4A (unknown origin) expressed in human HeLa cells assessed as increase in H3K9me3 levels after 24 hrs by DAPI staining based immunofluorescence assay; type: cell-based
[6] = Drug localization in lysosomes of human MCF7 cells at 10 uM after 3 hrs by Lysotracker red DND-99 staining based confocal microscopic analysis; type: ADME, subcellular, Lysosome; settings: mcf7, 3 h

Row | SMILES | Drug uptake [1] | pIC50 [2] | pIC50 [3] | pKd [4] | pEC50 ([5]; hela) | Drug uptake [6] | pEC50 [5]
1 | CC[C@H](C)[C@@H]1NC(=O)[C@H](Cc2c[nH]c3ccccc23)NC(=O)CNC(=O)[C@H](CO)NC(=O)[C@H](CCCNC(=N)N)NC(=O)[C@H](C(C)C)NC(=O)[C@H](C(C)C)NC(=O)[C@H](CCCNC(=N)N)NC(=O)[C@H]([C@@H](C)CC)NC(=O)[C@@H](Cc2ccc(O)cc2)NC(=O)CSC[C@@H](C(N)=O)NC(=O)[C@H](Cc2c[nH]c3ccccc23)NC1=O | 2.9% | 7.66 | 7.37 | 8.43 | – | – | –
2 | CC[C@H](C)[C@@H]1NC(=O)[C@H](CCCNC(=N)N)NC(=O)[C@H]([C@@H](C)CC)NC(=O)[C@@H](Cc2ccc(O)cc2)NC(=O)CSC[C@@H](C(N)=O)NC(=O)[C@H](Cc2c[nH]c3ccccc23)NC(=O)[C@H](CC(C)C)NC(=O)[C@H](Cc2c[nH]c3ccccc23)NC(=O)[C@@H](C)NC(=O)[C@H](CO)NC(=O)[C@H](CCCNC(=N)N)NC(=O)[C@H](CCCNC(=N)N)NC1=O | 92.7% | 7.42 | 7.82 | 8.51 | < 4.30 | – | –
3 | CC[C@H](C)[C@@H]1NC(=O)[C@H](CCCNC(=N)N)NC(=O)[C@@H]2CCCN2C(=O)[C@@H](Cc2ccc(O)cc2)NC(=O)CSC[C@@H](C(N)=O)NC(=O)[C@H](Cc2c[nH]c3ccccc23)NC(=O)[C@H](CCCNC(=N)N)NC(=O)[C@H]([C@@H](C)CC)NC(=O)[C@@H](C)NC(=O)[C@H](CO)NC(=O)[C@H](CCCNC(=N)N)NC(=O)[C@H](CCCNC(=N)N)NC1=O | 97.1% | 6.76 | 6.68 | 7.85 | < 4.30 | – | –
4 | N=C(N)NCCC[C@@H]1NC(=O)CNC(=O)[C@H](Cc2ccc(O)cc2)NC(=O)CSC[C@@H](C(N)=O)NC(=O)[C@H](CCCNC(=N)N)NC(=O)[C@H](CCCNC(=N)N)NC(=O)[C@H](CCCNC(=N)N)NC(=O)[C@H](CCC(N)=O)NC(=O)[C@H](CCCNC(=N)N)NC(=O)[C@H](CCCCN)NC(=O)[C@H](CCCCN)NC(=O)[C@H](CCCCN)NC1=O ({CH2CO}-YGRKKKRQRRRC-NH2; thioether N-12) | Active | – | – | – | – | Active | –
5 | CC[C@H](C)[C@@H]1NC(=O)[C@H](CCCNC(=N)N)NC(=O)[C@H]([C@@H](C)CC)NC(=O)[C@H](Cc2ccc(O)cc2)NC(=O)CSC[C@@H](C(N)=O)N(C)C(=O)[C@H](Cc2c[nH]c3ccccc23)NC(=O)[C@H](CC(C)C)NC(=O)[C@H](Cc2c[nH]c3ccccc23)NC(=O)CNC(=O)[C@H](CO)NC(=O)[C@H](CCCNC(=N)N)NC(=O)[C@H](CCCNC(=N)N)NC1=O ({CH2CO}-YIRIRRSGWLW[NMeC]-NH2; thioether N-12) | 18% | 7.28 | 7.47 | 8.08 | – | – | < 4.30
6 | CC[C@H](C)[C@@H]1NC(=O)[C@H](CCCNC(=N)N)NC(=O)[C@H]([C@@H](C)CC)NC(=O)[C@H](Cc2ccc(O)cc2)NC(=O)CSC[C@@H](C(N)=O)NC(=O)[C@H](Cc2c[nH]c3ccccc23)NC(=O)[C@H](C(C)C)NC(=O)[C@H](Cc2c[nH]c3ccccc23)NC(=O)CNC(=O)[C@H](CO)NC(=O)[C@H](CCCNC(=N)N)NC(=O)[C@H](CO)NC1=O ({CH2CO}-YIRISRSGWVWC-NH2; thioether N-12) | 12.1% | 7.64 | 7.51 | 7.80 | – | – | –
7 | CC[C@H](C)[C@@H]1NC(=O)[C@H](CC(C)C)NC(=O)[C@H](Cc2ccc(O)cc2)NC(=O)CSC[C@@H](C(N)=O)NC(=O)[C@H](Cc2c[nH]c3ccccc23)NC(=O)[C@H](C(C)C)NC(=O)[C@H](CC(C)C)NC(=O)CNC(=O)[C@H](CO)NC(=O)[C@H](CCCNC(=N)N)NC(=O)[C@H](CCCNC(=N)N)NC(=O)[C@H](C(C)C)NC1=O ({CH2CO}-YLIVRRSGLVWC-NH2; thioether N-12) | 3.4% | 6.82 | 7.09 | 6.76 | – | – | –
8 | CC[C@H](C)[C@@H]1NC(=O)[C@H](CC(C)C)NC(=O)CNC(=O)[C@H](CO)NC(=O)[C@H](CCCNC(=N)N)NC(=O)[C@H](C(C)C)NC(=O)[C@H](C(C)C)NC(=O)[C@H](CCCCN)NC(=O)[C@@H]2CCCN2C(=O)[C@H](Cc2ccc(O)cc2)NC(=O)CSC[C@@H](C(N)=O)NC(=O)[C@H](Cc2c[nH]c3ccccc23)NC1=O ({CH2CO}-YPKVVRSGLIWC-NH2; thioether N-12) | 1.7% | 6.81 | 7.09 | 7.31 | – | – | –
9 | CC[C@H](C)[C@@H]1NC(=O)CNC(=O)[C@H](CO)NC(=O)[C@H](CCCNC(=N)N)NC(=O)[C@H](CCCNC(=N)N)NC(=O)[C@H]([C@@H](C)CC)NC(=O)[C@H](CCCNC(=N)N)NC(=O)[C@@H]2CCCN2C(=O)[C@H](Cc2ccc(O)cc2)NC(=O)CSC[C@@H](C(N)=O)N(C)C(=O)[C@H](Cc2c[nH]c3ccccc23)NC(=O)[C@H](CCCNC(=N)N)NC1=O ({CH2CO}-YPRIRRSGIRW[NMeC]-NH2; thioether N-12) | 28.2% | 6.79 | 6.43 | 8.05 | – | – | < 4.30
10 | CC[C@H](C)[C@@H]1NC(=O)[C@H](Cc2c[nH]c3ccccc23)NC(=O)CNC(=O)[C@H](CO)NC(=O)[C@H](CCCNC(=N)N)NC(=O)[C@H](CCCCN)NC(=O)[C@H]([C@@H](C)CC)NC(=O)[C@H](CO)NC(=O)[C@@H]2CCCN2C(=O)[C@H](Cc2ccc(O)cc2)NC(=O)CSC[C@@H](C(N)=O)NC(=O)[C@H](Cc2c[nH]c3ccccc23)NC1=O ({CH2CO}-YPSIKRSGWIWC-NH2; thioether N-12) | 0.8% | 7.26 | 7.39 | 7.68 | – | – | –
11 | CC[C@H](C)[C@@H]1NC(=O)[C@H](CCCNC(=N)N)NC(=O)[C@H]([C@@H](C)CC)N(C)C(=O)[C@H](Cc2ccc(O)cc2)NC(=O)CSC[C@@H](C(N)=O)NC(=O)[C@H](Cc2c[nH]c3ccccc23)NC(=O)[C@H](CC(C)C)NC(=O)[C@H](Cc2c[nH]c3ccccc23)NC(=O)CNC(=O)[C@H](CO)NC(=O)[C@H](CCCNC(=N)N)NC(=O)[C@H](CCCNC(=N)N)NC1=O ({CH2CO}-Y[NMeI]RIRRSGWLWC-NH2; thioether N-12) | 55.6% | 7.92 | 7.96 | 7.85 | – | – | < 4.30
